From patent US20110112282A1, “IDO INHIBITORS AND THERAPEUTIC USES THEREOF” (priority 2008, published 2011) come the findings set out here.

For this test, the target named is purified recombinant IDO (Homo sapiens, UniProt P14902). As to the kind of experiment: Enzymatic IDO inhibition assay (Takikawa et al., modified; kynurenine by HPLC). The note with it: result in words; oxidized dimeric analogues. The format is biochemical. Here is the method:
The enzymatic inhibition assays were performed as described by Takikawa et al. [Takikawa, O.; Kuroiwa, T.; Yamazaki, F.; Kido, R. J Biol Chem, 1988, 263, 2041-2048.] with some modifications. Briefly, the reaction mixture (100 μl) contained potassium phosphate buffer (100 mM, pH 6.5) ascorbic acid (20 mM), catalase (200 units/ml), methylene blue (10 μM), purified recombinant IDO (2 ng/μl), and L-Trp (200 μM). The inhibitors were serially diluted ranging from 0.1 to 1000 μM. The reaction was carried out at 37° C. for 60 min and stopped by the addition of 30% (w/v) trichloroacetic acid (40 μl). To convert the product of Trp dioxygenation by IDO, N-formylkynurenine, to spectroscopically detectable kynurenine, the tubes were incubated at 50° C. for 30 min, followed by a centrifugation at 10000 g for 20 min. Lastly, 100 μl of supernatant from each probe was transfered to another tube for HPLC analysis. The mobile phase for HPLC measurements consisted of 50% sodium citrate buffer (40 mM, pH 2.25) and 50% methanol with 400 μM SDS. The flow rate through the S5-ODS1 column was chosen to be 1 ml/min, and kynurenine was detected at a wavelength of 365 nm.

Chain of purified recombinant IDO (P14902 whole entry): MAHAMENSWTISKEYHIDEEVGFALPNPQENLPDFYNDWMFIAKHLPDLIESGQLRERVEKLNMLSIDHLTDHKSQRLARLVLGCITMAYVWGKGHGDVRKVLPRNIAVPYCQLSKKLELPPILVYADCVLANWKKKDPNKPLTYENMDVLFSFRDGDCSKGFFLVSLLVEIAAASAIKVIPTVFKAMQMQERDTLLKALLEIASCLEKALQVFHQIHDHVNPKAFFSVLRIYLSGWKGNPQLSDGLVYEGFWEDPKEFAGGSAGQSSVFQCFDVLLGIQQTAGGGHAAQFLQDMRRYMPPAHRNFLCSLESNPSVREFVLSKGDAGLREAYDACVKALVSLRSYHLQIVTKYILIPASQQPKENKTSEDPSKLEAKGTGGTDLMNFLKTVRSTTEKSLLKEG

In the case of `CC(C)/C=C1/C=C(C2=C/C(=N\C(C)C)c3ccccc3C2=O)C(=O)c2ccccc21` [Example 23], the activity in vitro result is given as “excellent activity”.

For `CCC(CC)CC1C=C(C2=CC(CC(CC)CC)c3ccccc3C2=O)C(=O)c2ccccc21` (centres unmarked) [Example 24], the activity in vitro entry is given as “excellent activity”.
